What was measured:
TNFα = experiment: ELISA of TNFα in medium of LPS-stimulated monocytes; assay type: cell-based, human; conditions: 300 μM
Experimental: (§1) FIG. 5—The inhibitory effects of GroPIns are also evident at the protein expression level. Purified monocytes (4×10^3 cells/sample) were pre-incubated for 20 min at 37° C. in the absence and presence of 300 μM GroPIns, and then for a further 5 h and 24 h without or with 0.1 μg/ml LPS from E. coli. At the end of this incubation, the levels of TNFα, IL-1β and TxB-2 in the medium were assessed by ELISA. In monocytes alone, the protein concentrations were under the assay detection limits at both the times. The data are representative of three independent experiments performed with cells from different donors. Exposure of monocytes to LPS induced a time-dependent increase in the […] levels of all of the cytokines analysed.
(§2) Cellular levels of TNFα, IL-1β and TxB-2 were quantified by enzyme-linked immunosorbent assay (ELISA). Conditioned medium from monocytes was sedimented by centrifugation at 300×g at room temperature for 10 min to eliminate cellular debris. Then, the supernatant was recovered and the concentrations of TNFα, IL-1β and TxB-2 were assessed by ELISA, as specified by the manufacturers (Amersham Pharmacia Biotech (NJ, USA).

TxB-2 = experiment: ELISA of TxB-2 in medium of LPS-stimulated monocytes; assay type: cell-based, human; conditions: 300 μM
Experimental: as §1, §2

[1] = test system: cyclooxygenase 2 (COX-2) gene expression; experiment: In vitro model of human inflammation: real-time PCR of COX-2; assay type: cell-based; conditions: 300 μM; 4 h, 14 h, 24 h, 48 h; effect mainly at 4 h and 14 h; one donor, preliminary
Experimental: (§3) FIG. 15—Glycerophosphoinositol modulates the kinetic transcriptional profile of genes involved in the regulation of inflammatory response. Human monocytes were purified from one donor and treated according to the in vitro model of human inflammation, previously described, in absence (blue line) or in presence (red line) of 300 μM glycerophosphoinositol. In detail glycerophosphoinositol was added to cells in culture 20 minutes before LPS, IL-10 and TGF-β, that is, again after each wash. Samples were collected at time 4 h, 14 h, 24 h, 48 h; freshly isolated monocytes have been considered as control at time 0 h. Total RNA was extracted from cells by RNeasy kit (Qiagen) and reverse-transcribed to cDNA (QuantiTect Reverse Transcription kit, Qiagen). […] Each sample was measured in triplicate and data were analyzed with Pfaffl methods for comparing relative expression data. The measurement of mRNA expression was expressed as fold-increase over control (time 0 h). […]
(§4) Total RNA was extracted with RNeasy kit (Qiagen) according to the manufacturer's instructions. Both integrity and quality of total RNA were checked by agarose gel electrophoresis and the concentration of each RNA sample was assessed spectrophotometrically. Total RNAs were reverse-transcribed to cDNA (QuantiTect Reverse Transcription kit, Qiagen) with oligo-dT and random primers, according to manufacturer's protocol. […]

[2] = test system: phospholipase A2IVα (PLA2IVα) gene expression; experiment: In vitro model of human inflammation: real-time PCR of PLA2IVα; assay type: cell-based; conditions: 300 μM; 4 h, 14 h, 24 h, 48 h; effect mainly at 4 h and 14 h; one donor, preliminary
Experimental: as §3, §4

[3] = test system: interleukin-1 receptor II (IL-1RII) gene expression; experiment: In vitro model of human inflammation: real-time PCR of IL-1RII; assay type: cell-based; conditions: 300 μM; 4 h, 14 h, 24 h, 48 h; one donor, preliminary
Experimental: as §3, §4

O=P(O)(OCC(O)CO)OC1C(O)C(O)C(O)C(O)C1O (stereo not shown) [GroPIns, glycerophosphoinositol]
level of TNFα in the medium (TNFα; 0.1 μg/ml LPS for 5 h): very small effects | level of TNFα in the medium (TNFα; 0.1 μg/ml LPS for 24 h): significantly reduced | level of TxB-2 in the medium (TxB-2; 0.1 μg/ml LPS for 5 h): very small effects | level of TxB-2 in the medium (TxB-2; 0.1 μg/ml LPS for 24 h): significantly reduced | COX-2 mRNA expression [1]: hampered the expression | PLA2IVα mRNA expression [2]: hampered the expression | IL-1RII mRNA expression [3]: favoured the expression

Reference: patent publication US9351983B2, “Use of glycerophosphoinositols for the treatment of septic shock” (CONSIGLIO NAZIONALE DELLE RICERCHE, priority 2012, dated 2016)
